The source of these data is patent publication US12453731B2, “Aniline-based WDR5 protein-protein interaction inhibitor, and preparation method and use thereof” (CHINA PHARMACEUTICAL UNIVERSITY, priority 2019, dated 2025).

Assay [1] relates to methylation level of H3K4. The assay is described as follows: inhibition of the methylation level of H3K4 (methyltransferase activity). Type of assay: biochemical.
Assay [2] relates to MV4-11 human acute mononuclear leukemia cells. The assay is described as follows: anti-proliferative activity against leukemia cells MV4-11. The assay is classed as cell-based. As to conditions: Homo sapiens, MV4-11, MV4-11 cells; read-out: GI50 (MV-411). The text has this:
(§1) Some compounds of the present disclosure have also been tested for the antiproliferative activity against leukemia cells.

The target of another assay is MLL1-WDR5 PPI (Homo sapiens (Human), UniProt P61964). The assay is described as follows: fluorescent probe assay of MLL1-WDR5 protein-protein interaction inhibition. The assay is classed as binding. As to conditions: fluorescent probe based on MLL1 peptide, incubation 0.5 hrs, read-out: MLL1-WDR5 PPI inhibiting activity IC50. The procedure:
In the present disclosure, a fluorescent molecular probe was constructed based on a MLL1 peptide fragment binding to WDR5, for use as a method for study on an aniline compound interfering with WDR5 protein-protein interaction, to determine an inhibition rate of the aniline compound at various concentrations, and then compute the IC50 value. Specific experimental steps: 20 μL of WDR5 protein, 20 μL of a fluorescent probe, and 20 μL of a compound of different concentration gradients were added to a 384-well plate respectively. After incubation for 0.5 hrs, the fluorescence was read on a multifunctional microplate reader at an excitation wavelength of 485 nm and an emission wavelength of 535 nm, to compute the mP value. The inhibition rate was computed as per the formula below, and then the IC50 value was computed using GraphPad software.

The test system of assay [3] is Molm-13 human acute myeloid leukemia cells. The assay is described as follows: anti-proliferative activity against leukemia cells Molm-13. The assay is classed as cell-based. As to conditions: Homo sapiens, MOLM-13, Molm-13 cells.
Description: as §1

The next assay deals with MV4-11 tumor. The assay is described as follows: MV4-11 nude mouse xenograft tumor model. The assay is classed as in vivo. As to conditions: MV4-11 xenograft in nude mice, oral administration, FIG. 3. The text has this: In addition, some of the compounds of the present disclosure have also been tested for the anti-tumor activity at the animal level. A nude mice xenograft tumor model of leukemia cells MV4-11 was selected for oral administration.

The test system of another assay is Hox and Meis-1 genes. The assay is described as follows: RT-PCR, expression of downstream Hox and Meis-1 genes at the cellular level. The assay is classed as cell-based. As to conditions: FIG. 2. The text has this:
Furthermore, some of the compounds of the present disclosure have also been subjected to a RT-PCR experiment at the cellular level. The results of the inhibitory effect of some compounds on the expression levels of downstream Hox and Meis-1 genes at the cellular level are shown in FIG. 2.

The test system of assay [4] is MLL1 (H3K4me1/2/3 expression level). The assay is described as follows: Western blot, methyltransferase function of MLL1 at the cellular level. The assay is classed as cell-based. As to conditions: FIG. 1. The source says:
Moreover, some compounds have also been tested by Western-blot.

On to `CN1CCN(c2ccc(-c3ccc(C(=O)NCCN4CCOCC4)cc3)c(F)c2Nc2ncnc(Cl)c2N)CC1` [Example 56], for which the “Whether the methylation level of H3K4 was inhibited” value in assay [1] is reported as “Yes”. The figures for the GI50 in assay [2] and in assay [3] were 9.04 µM and 8.43 µM, respectively. Besides, on MLL1-WDR5 PPI, the IC50 was 0.102 µM.

Take `CN1CCN(c2ccc(-c3ccc(C(=O)NCCCN4CCOCC4)cc3)c(F)c2Nc2ncnc(Cl)c2N)CC1` [Example 57]: the “Whether the methylation level of H3K4 was inhibited” value in assay [1] is recorded as “Yes”. For the same molecule, the results for the GI50 in assay [2] and in assay [3] were 22.3 µM and 17.6 µM, respectively. Moreover, the IC50 on MLL1-WDR5 PPI is 0.069 µM.

Turning to `CCN1CCN(C(=O)c2ccc(-c3ccc(N4CCN(C)CC4)c(Nc4ncnc(Cl)c4N)c3F)cc2)CC1` [Example 58, (3″-((5-amino-6-chloropyrimidin-4-yl)amino)-2′-fluoro-4″-(4-methylpiperazin-1-yl)-[1,1′-biphenyl]-4-yl)(4-ethylpiperazin-1-yl)methanone], the “Whether the methylation level of H3K4 was inhibited” value in assay [1] is listed as “Yes”. Moreover, the GI50 is 19.5 µM in assay [2] and 20.3 µM in assay [3]. The IC50 on MLL1-WDR5 PPI amounted to 0.112 µM.

For the molecule `CN1CCN(c2ccc(-c3ccc(NC(=O)C4CCOCC4)cc3)c(F)c2Nc2ncnc(Cl)c2N)CC1` [Example 59, N-(3″-((5-amino-6-chloropyrimidin-4-yl)amino)-2′-fluoro-4″-(4-methylpiperazin-1-yl)-[1,1′-biphenyl]-4-yl)tetrahydro-2H-pyran-4-carboxamide], the “Whether the methylation level of H3K4 was inhibited” value in assay [1] is listed as “Yes”. Further, the GI50 in assay [2] worked out at 26.4 µM; in assay [3], 31.2 µM. Further, the IC50 on MLL1-WDR5 PPI was found to be 0.176 µM.

`CN1CCC(C(=O)Nc2ccc(-c3ccc(N4CCN(C)CC4)c(Nc4ncnc(Cl)c4N)c3F)cc2)CC1` [Example 60, N-(3″-((5-amino-6-chloropyrimidin-4-yl)amino)-2′-fluoro-4″-(4-methylpiperazin-1-yl)-[1,1′-biphenyl]-pyridin-4-yl)-1-methylpiperidin-4-carboxamide]: the “Whether the methylation level of H3K4 was inhibited” value in assay [1] is recorded as “Yes”. The GI50 was 22.7 µM in assay [2] and 22.6 µM in assay [3]. Further, the IC50 on MLL1-WDR5 PPI turned out to be 0.105 µM.

For the molecule `CN1CCN(c2ccc(-c3ccc(NC(=O)CC4CCOCC4)cc3)c(F)c2Nc2ncnc(Cl)c2N)CC1` [Example 61], in assay [1], the “Whether the methylation level of H3K4 was inhibited” value is listed as “Yes”. Also, the results for the GI50 in assay [2] and in assay [3] were 21.1 µM and 20.5 µM, respectively. Also, the IC50 at MLL1-WDR5 PPI was found to be 0.085 µM.

Consider `CC(C)C(N)C(=O)Nc1ccc(-c2ccc(N3CCN(C)CC3)c(Nc3ncnc(Cl)c3N)c2F)cc1` (centres unmarked) [Example 62, 2-amino-N-(3″-((5-amino-6-chloropyrimidin-4-yl)amino)-2′-fluoro-4″-(4-methylpiperazin-1-yl)-[1,1′biphenylyl]-4-yl)-3-methylbutyramide], for which the “Whether the methylation level of H3K4 was inhibited” value in assay [1] is listed as “Yes”. Besides, the GI50 is 17.4 µM in assay [2] and 22 µM in assay [3]. Besides, on MLL1-WDR5 PPI, the IC50 came out at 0.034 µM.

For the molecule `CN1CCN(c2ccc(-c3ccc(NC(=O)CN)cc3)c(F)c2Nc2ncnc(Cl)c2N)CC1` [Example 64, 2-amino-N-(3″-((5-amino-6-chloropyrimidin-4-yl)amino)-2′-fluoro-4″-(4-methylpiperazin-1-yl)-[1,1′biphenylyl]-4-yl)acetamide], in assay [1], the “Whether the methylation level of H3K4 was inhibited” value is recorded as “Yes”. Moreover, the GI50 came out at 20.4 µM in assay [2] and 28.6 µM in assay [3]. On MLL1-WDR5 PPI, the IC50 was found to be 0.033 µM.

Turning to `CN1CCN(c2cc(F)c(-c3ccc(C(=O)N4CCOCC4)cc3)cc2Nc2ncnc(Cl)c2N)CC1` [Example 67, (5″-((5-amino-6-chloropyrimidin-4-yl)amino)-2′-fluoro-4″-(4-methylpiperazin-1-yl)-[1,1′-biphenyl]-4-yl)(morpholino)methanone], the “Whether the methylation level of H3K4 was inhibited” value in assay [1] is on record as “Yes”. Also, the results for the GI50 in assay [2] and in assay [3] were 19.6 µM and 16.5 µM, respectively. The IC50 at MLL1-WDR5 PPI was 0.036 µM.

Consider `CN1CCN(c2cc(F)c(-c3ccc(C(=O)NCCN4CCOCC4)cc3)cc2Nc2ncnc(Cl)c2N)CC1` [Example 68], for which the “Whether the methylation level of H3K4 was inhibited” value in assay [1] was “Yes”. The results for the GI50 in assay [2] and in assay [3] were 27.7 µM and 23.1 µM, respectively. For the same molecule, the IC50 at MLL1-WDR5 PPI was 0.074 µM.

Turning to `CN1CCN(c2cc(F)c(-c3ccc(C(=O)NCCCN4CCOCC4)cc3)cc2Nc2ncnc(Cl)c2N)CC1` [Example 69], in assay [1], the “Whether the methylation level of H3K4 was inhibited” value is recorded as “Yes”. Also, the figures for the GI50 in assay [2] and in assay [3] were 25.6 µM and 17.3 µM, respectively. For the same molecule, the IC50 on MLL1-WDR5 PPI came to 0.021 µM.

`CN1CCN(c2cc(F)c(-c3ccc(C(=O)N4CCC(O)CC4)cc3)cc2Nc2ncnc(Cl)c2N)CC1` [Example 70]: in assay [1], the “Whether the methylation level of H3K4 was inhibited” value is on record as “Yes”. The GI50 came out at 20.2 µM in assay [2] and 13.2 µM in assay [3]. Further, the IC50 at MLL1-WDR5 PPI is 0.033 µM.

In the case of `CN1CCN(c2cc(F)c(-c3ccc(C(=O)NCC4CCOCC4)cc3)cc2Nc2ncnc(Cl)c2N)CC1` [Example 71, 5″-((5-amino-6-chloropyrimidin-4-yl)amino)-2′-fluoro-4″-(4-methylpiperazin-1-yl)-N-((tetrahydro-2H-pyran-4-yl)methyl)-[1,1′-biphenylyl]-4-carboxamide], in assay [1], the “Whether the methylation level of H3K4 was inhibited” value was “Yes”. Besides, the GI50 came to 15.7 µM in assay [2] and 12.3 µM in assay [3]. At MLL1-WDR5 PPI, the IC50 was determined as 0.036 µM.

As for `CN1CCN(c2cc(F)c(-c3ccc(C(=O)N(C)C)cc3)cc2Nc2ncnc(Cl)c2N)CC1` [Example 72, 5″-((5-amino-6-chloropyrimidin-4-yl)amino)-2′-fluoro-N,N-dimethyl-4″-(4-methylpiperazin-1-yl)-[1,1′-biphenyl]-4-carboxamide], the “Whether the methylation level of H3K4 was inhibited” value in assay [1] is listed as “Yes”. Further, in the assay with MV4-11 tumor, the “inhibition of tumor growth” value is given as “inhibit the tumor growth dose-dependently”. Besides, the results for the GI50 in assay [2] and in assay [3] were 12.6 µM and 13.1 µM, respectively. In addition, the “expression levels of Hox and Meis-1 genes” value in the assay on Hox and Meis-1 genes was “down-regulate the expression levels of Hox and Meis-1 genes dose-dependently”. The IC50 on MLL1-WDR5 PPI was 0.029 µM. Also, the “inhibition of catalytic activity of MLL1, expression level of H3K4me1/2/3” value in assay [4] is listed as “inhibit the catalytic activity of MLL1 dose-dependently”.
